In EP4153181B1, “PHARMACEUTICAL COMPOSITIONS COMPRISING BICTEGRAVIR” (GILEAD SCIENCES, INC., priority 2020, dated 2021):

Experiments:
Settings in all cases: IV administration, mean
[1] = Plasma pharmacokinetics of BIC after single SC injection of long acting formulations (and IV infusion) in dog; format: in vivo, beagle dog
Text: (§1) Pharmacokinetics (PK) following a single BIC SC injection of solution and suspension formulations was characterized in male Sprague-Dawley rat, beagle dog, and cynomolgus monkey. The BIC injectable solution and both suspension formulations display extended-release PK following SC administration in all examined species and support a potential monthly or less frequent dosing regimen. […] Table 1. BIC Plasma Pharmacokinetic Parameters Following a Single Subcutaneous (SC) or Intramuscular (IM) Administration
This study investigated the pharmacokinetics of three formulations of bictegravir (BIC) by subcutaneous administration to determine the potential to deliver a long acting (LA) pharmacokinetic (PK) profile. BIC was administered by a 30-min intravenous (IV) infusion at 0.5 or 1 mg/kg and by subcutaneous (SC) injection of three LA formulations (e.g., NMP solution, HPMC suspension, and PVP suspension) at 10 mg/kg or 100 mg fixed dose to Male Beagle Dogs. The concentrations of BIC in plasma were determined with a liquid chromatography-tandem mass spectrometry (LC-MS/MS) method.
At dosing, the animals weighed between 7.98 and 11.6 kg. The animals from the SC leg with the PVP suspension were not fasted. […]
The intravenous dose was administered as a 30-minute infusion via a saphenous vein. […] Individual dose was calculated based on body weights recorded on the day of dose administration. […]

[2] = Plasma pharmacokinetics of BIC after single SC injection of long acting formulations (and IV infusion) in rat; format: in vivo, male Sprague-Dawley rat
Text: as §1
This study investigated the pharmacokinetics of three formulations of bictegravir (BIC) by subcutaneous administration to determine the potential to deliver a long acting (LA) pharmacokinetic (PK) profile. […] The concentrations of BIC in plasma were determined with a liquid chromatography-tandem mass spectrometry (LC-MS/MS) method. […]
The intravenous dose was administered as a 30-minute infusion via a catheter implanted animals. […] Individual dose was calculated based on body weights recorded on the day of dose administration. […]
For estimation of pharmacokinetic parameters, concentrations reported as below the lower limit of quantification (BLQ) were assigned a value of zero if pre-dose and treated as missing thereafter. […]

[3] = Plasma pharmacokinetics of BIC after single SC or IM injection of long acting formulations in monkey; format: in vivo, cynomolgus monkey

systemic elimination rate (ke1 = CL/Vss) [1]: ~ 0.302 h^-1 | systemic elimination rate (ke1 = CL/Vss) [2]: ~ 0.0162 h^-1 | systemic elimination rate (ke1 = CL/Vss) [3]: ~ 0.253 h^-1
SMILES: O=C(NCc1c(F)cc(F)cc1F)c1cn2c(c(O)c1=O)C(=O)N1[C@H]3CC[C@H](C3)O[C@@H]1C2 [BIC, (2R,5S,13aR)-8-hydroxy-7,9-dioxo-N-(2,4,6-trifluorobenzyl)-2,3,4,5,7,9,13,13a-octahydro-2,5-methanopyrido[1',2':4,5]pyrazino[2,1-b][1,3]oxazepine-10-carboxamide]
